Laboratory results published in patent publication EP4620949A1, “ACKR3 MODULATORS FOR CARDIOVASCULAR OR ANTIPLATELET THERAPY” (Eberhard Karls Universität Tübingen (Medizinische Fakultät), priority 2024, dated 2025).
Where “and” joins values, the source holds several entries; their conditions need not be identical. Equal entries are not always repeated.

Experiments:
[1] = biological target: T1, human ACKR3 (Homo sapiens, UniProt P25106); assay: ACKR3 β-Arrestin recruitment assay (NanoLuc complementation, NanoBiT) in HEK293T cells; format: cell-based; conditions: for EC50: ACKR3, HEK293T cells, average value of three independent experiments; for Efficacy (Emax) vs CXCL12: efficacy of CXCL12 at 300 nM set as 100%, average of three independent experiments
T1 construct: expressed in transfected cells; host or cells: HEK293T
Experimental: ACKR3 β-Arrestin Recruitment Assay. […] T.; Encell, L. P.; Wood, K. V. Nanoluc complementation reporter optimized for accurate measurement of protein interactions in cells. […] B.; Reynders, N.; Vanderplasschen, A.; Ollert, M.; Bouvier, M.; Szpakowska, M.; Chevigné, A. Proadrenomedullin n-terminal 20 peptides (pamps) are agonists of the chemokine scavenger receptor ACKR3/CXCR7. […] The prepared cells were then treated with compounds at concentrations ranging from 0.3 nM to 100 µM. Induction of β-Arrestin recruitment to receptors was evaluated by measuring bioluminescence with a Mithras LB940 luminometer (Berthold Technologies).
All curves were fitted to data points generated from the mean of at least three independent experiments. Results with values of p < 0.05 were considered statistically significant.

[2] = test system: platelets; assay: Flow cytometry assay of platelet degranulation (P-Selectin surface expression in PRP); format: cell-based, human; conditions: for P-Selectin expression reduction: PRP pre-incubated with compound (100 µM), then CRP-XL (1 µg/mL), % ±SEM normalized to CRP-XL-treated vehicle PRP
Experimental: Platelet Degranulation Studies of Derivatives. Concurrent with the β-Arrestin recruitment potency optimization, the compounds were also tested and developed according to their functional activity. To determine the ability of a compound to modulate platelets, P-Selectin surface expression was measured. P-Selectin is a surface protein involved in cell adhesion mechanisms and can be found on activated platelets. After induction of platelet aggregation in platelet-rich plasma (PRP), treatment with the respective compound should therefore lead to a significant reduction in P-Selectin expression. […]. […]. Similarly, platelet degranulation potency was highly sensitive toward "linker"-changes (Structure C, Table 1). A distinct trend could not be registered. […]. Flow Cytometry Assay. The inhibition of platelet degranulation was determined via flow cytometry experiments. Platelets were treated with collagen-related peptide (CRP-XL, CambCol Laboratories, Cambridge, UK) and the platelets' activation state was determined (Geue, S.; Aurbach, K.; Manke, M.-C.; Manukjan, G.; Münzer, P.; Stegner, D.; Brähler, C.; Walker-Allgaier, B.; Märklin, M.; Borst, C. E.; Quintanilla-Fend, L.; Rath, D.; Geisler, T.; Salih, H. R.; Seizer, P.; Lang, F.; Nieswandt, B.; Gawaz, M.; Schulze, H.; Pleines, I.; Borst, O. Pivotal role of pdk1 in megakaryocyte cytoskeletal dynamics and polarization during platelet biogenesis. Blood 2019, 134, 1847-1858; and Malehmir, M.; Pfister, D.; Gallage, S.; Szydlowska, M.; Inverso, D.; Kotsiliti, E.; Leone, V.; Peiseler, M.; Surewaard, B. G. J.; Rath, D.; Ali, A.; Wolf, M. J.; Drescher, H.; Healy, M. E.; Dauch, D.; Kroy, D.; Krenkel, O.; Kohlhepp, M.; Engleitner, T.; Olkus, A.; Sijmonsma, T.; Volz, J.; Deppermann, C.; Stegner, D.; Helbling, P.; Nombela-Arrieta, C.; Rafiei, A.; Hinterleitner, M.; Rail, M.; Baku, F.; Borst, O.; Wilson, C. L.; Leslie, J.; O'Connor, T.; Wes-ton, C. J.; Chauhan, A.; Adams, D. H.; Sheriff, L.; Teijeiro, A.; Prinz, M.; Bogeska, R.; An-stee, N.; Bongers, M. N.; Notohamiprodjo, M.; Geisler, T.; Withers, D. J.; Ware, J.; Mann, D. A.; Augustin, H. G.; Vegiopoulos, A.; Milsom, M. D.; Rose, A. J.; Lalor, P. F.; Llovet, J. M.; Pinyol, R.; Tacke, F.; Rad, R.; Matter, M.; Djouder, N.; Kubes, P.; Knolle, P. A.; Unger, K.; Zender, L.; Nieswandt, B.; Gawaz, M.; Weber, A.; Heikenwalder, M. Platelet gpibα is a mediator and potential interventional target for nash and subsequent liver cancer. Nat. Med. 2019, 25, 641-655). Briefly, PRP was isolated from peripheral human blood collected in citrate-phosphate-dextrose solution with adenine (CPDA) and diluted with phosphate-buffered saline (PBS) (Sigma Aldrich Co., Ltd., St. Luis, Missouri, USA) supplemented with CaCl2 and MgCl2. PRP (106 platelets /sample) was preincubated with the respective compound (100 µM) for 15 min. Samples were treated with 1 µg/ml CRP-XL (CambCol Laboratories, Cambridge, UK) for 30 min at room temperature in the presence of the respective fluorochrome-conjugated antibody against P-Selectin (CD62P-FITC; Beckman Coulter, Brea, CA, USA). Subsequently, samples were fixed in 0.5% paraformaldehyde and analyzed on a FACS-Calibur flow cytometer (FACS-Caliber flow cytometer, Becton-Dickinson, East Rutherford, NJ, USA). Mean fluorescence intensity (MFI) was used as a quantitative measurement of platelet surface expression.

T1 sequence (P25106 whole entry): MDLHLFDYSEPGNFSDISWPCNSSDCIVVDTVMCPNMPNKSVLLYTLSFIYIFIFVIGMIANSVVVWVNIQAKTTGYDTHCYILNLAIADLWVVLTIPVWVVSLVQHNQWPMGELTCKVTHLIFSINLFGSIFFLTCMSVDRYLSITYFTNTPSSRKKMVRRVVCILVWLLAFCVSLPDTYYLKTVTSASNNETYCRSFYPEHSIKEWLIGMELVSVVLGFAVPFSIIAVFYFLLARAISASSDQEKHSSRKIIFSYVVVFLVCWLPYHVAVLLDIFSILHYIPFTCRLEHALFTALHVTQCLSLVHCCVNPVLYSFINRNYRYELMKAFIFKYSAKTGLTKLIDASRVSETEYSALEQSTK
T1 sequence (P49407 whole entry partner): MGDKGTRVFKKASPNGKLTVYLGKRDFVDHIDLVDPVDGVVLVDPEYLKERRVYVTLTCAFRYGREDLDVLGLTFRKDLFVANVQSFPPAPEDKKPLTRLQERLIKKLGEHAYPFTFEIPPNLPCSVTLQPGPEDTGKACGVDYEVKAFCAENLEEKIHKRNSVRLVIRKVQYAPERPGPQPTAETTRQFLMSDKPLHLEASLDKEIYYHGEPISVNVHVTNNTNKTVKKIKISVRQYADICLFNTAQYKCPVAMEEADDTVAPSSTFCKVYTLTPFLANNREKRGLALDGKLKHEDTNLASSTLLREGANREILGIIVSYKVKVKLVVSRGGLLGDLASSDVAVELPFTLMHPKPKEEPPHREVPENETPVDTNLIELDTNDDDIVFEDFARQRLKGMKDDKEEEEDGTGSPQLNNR

Row | SMILES | EC50 [1] | P-Selectin expression reduction [2] | further results
1 | O=C(NCc1ccccc1)C1CCN(Cc2csc(-c3ccccc3)n2)CC1 [Compound 48, N-benzyl-1-((2-phenylthiazol-4-yl)methyl)piperidine-4-carboxamide] | 1500 nM and 1100 nM | – | Efficacy (Emax) vs CXCL12 [1]: 110%
2 | CN(CCCNC(=O)c1ccc(-c2ccccc2)s1)Cc1cccc(NC(=O)c2ccc(F)cc2)c1 [Compound 36, N-(3-((3-(4-fluorobenzamido)benzyl)(methyl)amino)propyl)-5-phenylthiophene-2-carboxamide] | 2100 nM and 1100 nM | – | Efficacy (Emax) vs CXCL12 [1]: 86%
3 | O=C(NCCCN(Cc1ccccc1)C1CC1)c1ccc(-c2ccccc2)s1 [Compound 25, N-(3-(benzyl(cyclopropyl)amino)propyl)-5-phenylthiophene-2-carboxamide] | – | 16±7% | –
4 | CC(C)N(CCCNC(=O)c1ccc(-c2ccccc2)s1)Cc1ccccc1 [Compound 24, N-(3-(benzyl(isopropyl)amino)propyl)-5-phenylthiophene-2-carboxamide] | 709 nM | – | –
5 | CN(CCCNC(=O)c1ccc(-c2ccc(F)cc2)s1)Cc1ccccc1 [Compound 14, N-(3-(benzyl(methyl)amino)propyl)-5-(4-fluorophenyl)thiophene-2-carboxamide] | – | 87±7% | –
6 | CN(CCCNC(=O)c1ccc(-c2ccncc2)s1)Cc1ccccc1 [Compound 13, N-(3-(benzyl(methyl)amino)propyl)-5-(pyridin-4-yl)thiophene-2-carboxamide] | 1720 nM | – | –
7 | CC(C)(C)NC(=O)C1CCN(CCCNC(=O)c2ccc(-c3ccccc3)s2)CC1 [Compound 37, N-(tert-butyl)-1-(3-(5-phenylthiophene-2-carboxamido)propyl)piperidine-4-carboxamide] | 3200 nM and 2500 nM | – | Efficacy (Emax) vs CXCL12 [1]: 102%
8 | CN(CCCNC(=O)c1ccc(Br)s1)Cc1ccccc1 [Compound 2, N-(3-(benzyl(methyl)amino)propyl)-5-bromothiophene-2-carboxamide] | 1620 nM | – | –
9 | CCN(CCCNC(=O)c1ccc(-c2cccc(F)c2)s1)Cc1ccccc1 [Compound 31, N-(3-(benzyl(ethyl)amino)propyl)-5-(3-fluorophenyl)thiophene-2-carboxamide] | – | 95±1% | –
10 | O=C(Nc1cccc(CN2CCCN(C(=O)c3ccc(-c4ccccc4)s3)CC2)c1)c1ccc(F)cc1 [Compound 41, 4-fluoro-N-(3-((4-(5-phenylthiophene-2-carbonyl)-1,4-diazepan-1-yl)methyl)phenyl)benzamide] | 76000 nM and 89000 nM | – | Efficacy (Emax) vs CXCL12 [1]: 50%
11 | O=C(NCCCN1CCc2ccccc2C1)c1ccc(-c2ccccc2)s1 [Compound 35, N-(3-(3,4-dihydroisoquinolin-2(1H)-yl)propyl)-5-phenylthiophene-2-carboxamide] | – | 27±9% | –
12 | CN(CCCNC(=O)c1ccc(-c2cc(F)cc(F)c2)s1)Cc1ccccc1 [Compound 17, N-(3-(benzyl(methyl)amino)propyl)-5-(3,5-difluorophenyl)thiophene-2-carboxamide] | – | 81±9% | –
13 | CC(C)(C)OC(=O)N1CCCC(CNC(=O)c2ccc(-c3ccccc3)s2)C1 (centres unmarked) [Compound 38, tert-butyl 3-((5-phenylthiophene-2-carboxamido)methyl)piperidine-1-carboxylate] | 4680 nM | – | –
14 | CN(CCCNC(=O)c1ccc(-c2ccccc2)s1)Cc1ccc(Br)cc1 [Compound 19, N-(3-((4-bromobenzyl)(methyl)amino)propyl)-5-phenylthiophene-2-carboxamide] | – | 89±3% | –
15 | CN(CCCNC(=O)c1ccc(-c2ccccc2)s1)Cc1cccc(F)c1 [Compound 22, N-(3-((3-fluorobenzyl)(methyl)amino)propyl)-5-phenylthiophene-2-carboxamide] | – | 66% and 66±14% | –
16 | CN(CCCNC(=O)c1ccc(-c2ccccc2F)s1)Cc1ccccc1 [Compound 15, N-(3-(benzyl(methyl)amino)propyl)-5-(2-fluorophenyl)thiophene-2-carboxamide] | – | 71±11% | –
17 | O=C(Nc1cccc(CNC(=O)c2ccc(-c3ccccc3)s2)c1)c1ccc(F)cc1 [Compound 43, N-(3-(4-fluorobenzamido)benzyl)-5-phenylthiophene-2-carboxamide] | 3350 nM | – | –
18 | CN1CCCC1CCNC(=O)c1csc(-c2ccccc2)n1 (centres unmarked) [Compound 44, N-(2-(1-methylpyrrolidin-2-yl)ethyl)-2-phenylthiazole-4-carboxamide] | 3000 nM | – | –
19 | CN(CCCNC(=O)c1ccc(-c2ccccc2)s1)Cc1ccccc1F [Compound 21, N-(3-((2-fluorobenzyl)(methyl)amino)propyl)-5-phenylthiophene-2-carboxamide] | – | 40% and 40±10% | –
20 | CN(CCCNC(=O)c1cc2ccccc2s1)Cc1ccccc1 [Compound 3, N-(3-(benzyl(methyl)amino)propyl)benzo[b]thiophene-2-carboxamide] | 775 nM | – | –
21 | CN(CCCNC(=O)c1cc2ccccc2[nH]1)Cc1ccccc1 [Compound 4, N-(3-(benzyl(methyl)amino)propyl)-1H-indole-2-carboxamide] | 2670 nM | – | –
22 | Cc1ccc(-c2ccc(C(=O)NCCCN(C)Cc3ccccc3)s2)cc1 [Compound 9, N-(3-(benzyl(methyl)amino)propyl)-5-(p-tolyl)thiophene-2-carboxamide] | 576 nM | – | –
23 | CN(CCCNC(=O)c1cc2ccccc2o1)Cc1ccccc1 [Compound 5, N-(3-(benzyl(methyl)amino)propyl)benzofuran-2-carboxamide] | – | 35% | functional activity (in words) ([2]; P-Selectin flow cytometry, "head"-scaffold compounds): inactive
24 | CN(CCCNC(=O)c1ccc(-c2ccccc2)s1)Cc1ccc(F)cc1 [Compound 20, N-(3-((4-fluorobenzyl)(methyl)amino)propyl)-5-phenylthiophene-2-carboxamide] | 370 nM | – | –
25 | COc1ccc(CN(C)CCCNC(=O)c2ccc(-c3ccccc3)s2)cc1 [Compound 18, N-(3-((4-methoxybenzyl)(methyl)amino)propyl)-5-phenylthiophene-2-carboxamide] | 930 nM | – | –
26 | CN(CCCNC(=O)CSc1ccccc1)Cc1ccccc1 [Compound 7, N-(3-(benzyl(methyl)amino)propyl)-2-(phenylthio)acetamide] | 809000 nM | – | Efficacy (Emax) vs CXCL12 [1]: 99%
27 | CN(CCCNC(=O)c1ccc(-c2ccc(C(C)(C)C)cc2)s1)Cc1ccccc1 [Compound 10, N-(3-(benzyl(methyl)amino)propyl)-5-(4-(tert-butyl)phenyl)thiophene-2-carboxamide] | 10200 nM | – | –
28 | CN(CCCNC(=O)c1ccc(-c2cccc(F)c2)s1)Cc1ccccc1 [Compound 16, N-(3-(benzyl(methyl)amino)propyl)-5-(3-fluorophenyl)thiophene-2-carboxamide] | 267 nM | – | more potent than 1 ([1]; β-Arrestin recruitment potency relative to compound 1): up to 1.5 fold
